One data set deals with LSD1 (Homo sapiens (Human), UniProt O60341). The experiment in a line: TR-FRET Assay for LSD1. Conditions: read-out: LSD1 IC50. For orientation: TR-FRET usually uses a lanthanide donor and a delayed reading to cut background.
In data set [1] the target is HDAC6 human recombinant enzyme (Homo sapiens (Human), UniProt Q9UBN7). The experiment in a line: Histone Deacetylase Assay (BPS Biosciences), HDAC6. The format is biochemical. From the text: Histone Deacetylase Assay (BPS Biosciences)
HDAC6 human recombinant enzyme, sequence (Q9UBN7 whole entry): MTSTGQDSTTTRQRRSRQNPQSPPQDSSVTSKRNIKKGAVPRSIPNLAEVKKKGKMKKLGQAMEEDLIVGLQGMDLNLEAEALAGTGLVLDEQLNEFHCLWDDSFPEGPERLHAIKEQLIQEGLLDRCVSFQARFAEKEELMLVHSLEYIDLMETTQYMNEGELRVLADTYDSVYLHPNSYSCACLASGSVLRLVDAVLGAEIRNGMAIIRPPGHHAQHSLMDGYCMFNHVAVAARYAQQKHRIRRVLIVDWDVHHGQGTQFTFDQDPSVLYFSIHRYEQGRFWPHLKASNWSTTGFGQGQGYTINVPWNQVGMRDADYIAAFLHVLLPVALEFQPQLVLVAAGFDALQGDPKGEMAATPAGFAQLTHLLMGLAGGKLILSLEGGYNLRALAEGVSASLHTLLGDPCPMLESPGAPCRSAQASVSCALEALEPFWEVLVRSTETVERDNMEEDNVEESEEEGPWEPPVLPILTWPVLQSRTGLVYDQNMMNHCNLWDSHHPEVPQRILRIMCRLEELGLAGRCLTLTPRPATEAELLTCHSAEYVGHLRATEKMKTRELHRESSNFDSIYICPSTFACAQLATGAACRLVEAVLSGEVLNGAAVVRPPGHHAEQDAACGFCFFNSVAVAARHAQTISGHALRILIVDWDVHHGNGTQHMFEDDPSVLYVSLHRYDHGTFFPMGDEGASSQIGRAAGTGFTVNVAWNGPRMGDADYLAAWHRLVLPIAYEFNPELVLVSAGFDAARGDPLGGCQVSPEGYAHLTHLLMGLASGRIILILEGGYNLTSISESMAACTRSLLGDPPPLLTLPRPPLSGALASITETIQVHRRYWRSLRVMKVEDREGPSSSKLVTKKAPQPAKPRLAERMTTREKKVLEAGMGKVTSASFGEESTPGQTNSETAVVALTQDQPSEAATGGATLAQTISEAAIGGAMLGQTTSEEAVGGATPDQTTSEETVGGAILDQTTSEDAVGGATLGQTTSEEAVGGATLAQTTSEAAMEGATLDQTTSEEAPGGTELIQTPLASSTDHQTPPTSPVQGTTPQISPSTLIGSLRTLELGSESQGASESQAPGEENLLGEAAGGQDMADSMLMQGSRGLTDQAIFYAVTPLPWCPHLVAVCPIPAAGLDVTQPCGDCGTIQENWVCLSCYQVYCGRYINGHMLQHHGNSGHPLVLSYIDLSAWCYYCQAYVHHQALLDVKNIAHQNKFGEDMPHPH
Histone deacetylase assay was done as per manufacturer's instructions.

Another data set relates to MM1S. The experiment in a line: Anticancer activity: Alamar Blue assay, MM1S. Format: cell-based. Conditions: Homo sapiens, MM1.S; MM1S cells; read-out: MM1S EC50. For orientation: The colour change of resazurin is a common sign of viable cells or microbes.
A short description of data set [2]: Metabolic stability in liver microsomes, MLM. Conditions: 1 μM, NADPH.
Description: (§1) The microsomal suspension was prepared by adding liver microsomes to 100 mM potassium phosphate buffer (pH7.4) to give a final protein concentration of 0.5 mg/mL. The stock solution of NCE (10 mM in DMSO) was added to the microsomes to provide a final concentration of 1 μM. […] Samples were vortexed and centrifuged at 5,000 rpm for 10 min to remove proteins. Supernatant were analyzed on LC-MS/MS.
Data set [3] can be described thus: Metabolic stability in liver microsomes, HLM. Conditions: 1 μM, NADPH.
Description: as §1

In general, pIC50 refers to the negative decadic logarithm of the IC50, by convention in mol/L. Usually pEC50 stands for −log10 of the EC50, conventionally taken in molar units.

pEC50, pIC50: −log10 of the molar value. Where a name gives a salt, the structure may show the parent alone. A value given as a limit tells only on which side of the number the result lay.

Description for LSD1: TR-FRET Assay for LSD1 (Perkin Elmer)
Tranylcypromine (TCP), LSD1 inhibitor was procured from Selleckchem. […] Stop Solution containing 300 μM tranylcypromine in 1× LANCE Detection Buffer was added to the wells and incubated for 5 min at RT. Then, Detection mix containing 2 nM Eu-Ab and 50 nM ULight-Streptavidin in 1× LANCE Detection Buffer was prepared and added to the reaction mix. This mixture was incubated for 1 hour at room temperature.
Description for MM1S: Cells were seeded at 5000 cells/per well in 96-well tissue culture plate and incubated at 37° C./5% CO2. After 16-24 hours, fresh media was added to the wells. Compounds were then (1% DMSO conc.) added to the cells at 10 concentrations ranging from 10-0.0005 uM prepared in 3-fold serial dilutions. Cells were incubated for 68-72 h at 37° C./5% CO2. Alamar Blue™ reagent was added and incubated for 1-3 hours at 37° C./5% CO2. Plates were read on fluorescence reader at 540 nm excitation, 590 nm emission wave lengths.

For `Nc1ccccc1NC(=O)c1ccc(OCCN2CCC(CNC3CC3c3ccc(F)cc3)CC2)nc1` (centres unmarked) [Example 149, N-(2-aminophenyl)-6-(2-(4-(((2-(4-fluorophenyl)cyclopropyl)amino)methyl)piperidin-1-yl)ethoxy)nicotinamide TFA Salt], the pIC50 on LSD1 is 7.68; in data set [1] it was less than 5.00. In addition, in the data set with MM1S, the negative-log EC50 (pEC50) was less than 5.00.
`Nc1ccccc1NC(=O)c1ccc(CCC(=O)N2CCC(NC3CC3c3ccccc3)CC2)cc1` (centres unmarked) [Example 133, N-(2-aminophenyl)-4-(3-oxo-3-(4-((2-phenylcyclopropyl)amino)piperidin-1-yl)propyl)benzamide TFA Salt]: the “Metabolic stability MLM % remaining in 30 min” value in data set [2] amounted to 9%. In addition, the figures for the pIC50 (at LSD1; in data set [1]) were 7.40 and less than 5.00, respectively. Also, the “Metabolic stability HLM % remaining in 30 min” value in data set [3] is reported as 19%.
As to `O=C(NO)c1ccc(C(=O)NCCN2CCC(CNC3CC3c3ccccc3)CC2)cc1` (centres unmarked) [Example 89, N-hydroxy-N4-(2-(4-(((2-phenylcyclopropyl)amino)methyl)piperidin-1-yl)ethyl)terephthalamide TFA Salt], the pIC50 is 7.70 at LSD1 and 6.14 in data set [1]. The pEC50 with MM1S was 6.51.
In the case of `O=C(NO)c1ccc(CCCn2cnc(CNC3CC3c3ccccc3)c2)cc1` (centres unmarked) [Example 75, N-hydroxy-4-(3-(4-(((2-phenylcyclopropyl)amino)methyl)-1H-imidazol-1-yl)propyl) benzamide TFA Salt], the pIC50 at LSD1 is 6.54; in data set [1], 6.44. Also, the negative-log EC50 (pEC50) in the data set with MM1S was 6.61.
With `O=C(NO)c1ccc(OCCN2CCC(CNC3CC3c3ccccc3)CC2)nc1` (centres unmarked) [Example 97, N-hydroxy-6-(2-(4-(((2-phenylcyclopropyl)amino)methyl)piperidin-1-yl)ethoxy)nicotinamide TFA Salt], the pIC50 was 7.48 at LSD1 and less than 5.00 in data set [1]. In addition, the pEC50 in the data set with MM1S is less than 5.00.
Consider `Nc1ccccc1NC(=O)c1ccc(CCCn2cc(CNC3CC3c3ccccc3)cn2)cc1` (centres unmarked) [Example 138, N-(2-aminophenyl)-4-(3-(4-(((2-phenylcyclopropyl)amino)methyl)-1H-pyrazol-1-yl)propyl)benzamide TFA Salt], for which the negative logarithm of the IC50 (pIC50) is 7.00 on LSD1 and less than 5.00 in data set [1]. Moreover, the pEC50 in the data set with MM1S was 7.19.
On to `O=C(NO)c1cnc(CCCN2CCC(CNC3CC3c3ccccc3)CC2)s1` (centres unmarked) [Example 112, N-hydroxy-2-(3-(4-(((2-phenylcyclopropyl)amino)methyl)piperidin-1-yl)propyl)thiazole-5-carboxamide TFA Salt], for which the results for the pIC50 (on LSD1; in data set [1]) were 7.66 and 6.29, respectively. The pEC50 in the data set on MM1S is 7.20.
For `Nc1ccccc1NC(=O)c1ccc(Cn2cc(CNC3CC3c3ccccc3)cn2)cc1` (centres unmarked) [Example 145, N-(2-aminophenyl)-4-((4-(((2-phenylcyclopropyl)amino)methyl)-1H-pyrazol-1-yl)methyl)benzamide TFA Salt], in that order: 7.21, less than 5.00 and 6.91.
With `O=C(NO)c1ccc(CCCC2CCN(C(=O)CNC3CC3c3ccccc3)CC2)cc1` (centres unmarked) [Example 93, N-hydroxy-4-(3-(1-(2-((2-phenylcyclopropyl)amino)acetyl)piperidin-4-yl)propyl)benzamide TFA Salt], the negative-log IC50 (pIC50) is 7.14 at LSD1 and 6.73 in data set [1]. Besides, the negative logarithm of the EC50 (pEC50) with MM1S is 5.98.
Regarding `CC(C)n1cc(C2CC2NCC2CCN(CCCc3ccc(C(=O)Nc4ccccc4N)cc3)CC2)cn1` (centres unmarked) [Example 128, N-(2-aminophenyl)-4-(3-(4-(((2-(1-isopropyl-1H-pyrazol-4-yl)cyclopropyl)amino)methyl)piperidin-1-yl)propyl)benzamide TFA Salt], the results for the pIC50 (at LSD1; in data set [1]) were 6.89 and less than 5.00, respectively. The negative logarithm of the EC50 (pEC50) in the data set with MM1S was 7.15.
For `O=C(NO)c1ccc(CCCn2cc(CNC3CC3c3ccccc3)cn2)cc1` (centres unmarked) [Example 76, N-hydroxy-4-(3-(4-(((2-phenylcyclopropyl)amino)methyl)-1H-pyrazol-1-yl)propyl)benzamide TFA Salt], the negative logarithm of the IC50 (pIC50) was 7.08 at LSD1 and 7.66 in data set [1]. The negative logarithm of the EC50 (pEC50) in the data set with MM1S was 7.38.
Turning to `O=C(NO)c1ccc2c(c1)CN(C(=O)CCCN1CCC(CNC3CC3c3ccccc3)CC1)C2` (centres unmarked) [Example 109, N-hydroxy-2-(4-(4-(((2-phenylcyclopropyl)amino)methyl)piperidin-1-yl)butanoyl)isoindoline-5-carboxamide TFA Salt], the pIC50 on LSD1 was 7.62; in data set [1], 6.97. The pEC50 in the data set on MM1S is 5.96.
Regarding `O=C(NO)c1ccc(S(=O)(=O)N2CCC(CNC3CC3c3ccccc3)CC2)cc1` (centres unmarked) [Example 85, N-hydroxy-4-((4-(((2-phenylcyclopropyl)amino)methyl)piperidin-1-yl)sulfonyl)benzamide TFA Salt], the pIC50 is 7.21 on LSD1 and 6.24 in data set [1]. Besides, the pEC50 in the data set with MM1S is less than 5.00.
`CC(C)n1cc(C2CC2NCC2CCN(CCCc3ccc(C(=O)NO)cc3)CC2)cn1` (centres unmarked) [Example 67, N-hydroxy-4-(3-(4-(((2-(1-isopropyl-1H-pyrazol-4-yl)cyclopropyl)amino)methyl)piperidin-1-yl)propyl)benzamide TFA Salt]: the pIC50 on LSD1 is 6.32; in data set [1], 6.57. Moreover, the pEC50 with MM1S is 7.15.
As to `O=C(NO)c1ccc(OCCN2CCC(CNC3CC3c3ccc(-c4ccc(F)cc4)cc3)CC2)nc1` (centres unmarked) [Example 98, 6-(2-(4-(((2-(4′-fluoro-[1,1′-biphenyl]-4-yl)cyclopropyl)amino)methyl)piperidin-1-yl)ethoxy)-N-hydroxynicotinamide TFA Salt], the negative-log IC50 (pIC50) was 7.43 on LSD1 and 5.22 in data set [1]. The pEC50 in the data set on MM1S is less than 5.00.
With `O=C(NO)c1ccc(CCCn2cc(CNC3CC3c3ccccc3)nn2)cc1` (centres unmarked) [Example 77, N-hydroxy-4-(3-(4-(((2-phenylcyclopropyl)amino)methyl)-1H-1,2,3-triazol-1-yl)propyl)benzamide TFA Salt], the results for the negative logarithm of the IC50 (pIC50) (at LSD1; in data set [1]) were 7.19 and 7.15, respectively. In addition, the pEC50 in the data set with MM1S was 7.15.
Turning to `Nc1ccccc1NC(=O)c1ccc(CCCn2cc(CNC3CC3c3ccccc3)nn2)cc1` (centres unmarked) [Example 137, N-(2-aminophenyl)-4-(3-(4-(((2-phenylcyclopropyl)amino)methyl)-1H-1,2,3-triazol-1-yl)propyl)benzamide TFA Salt], the pIC50 at LSD1 is 6.86; in data set [1], less than 5.00. Besides, the pEC50 with MM1S was 6.90.
Take `Nc1ccccc1NC(=O)c1ccc(Cn2cc(CNC3CC3c3ccccc3)nn2)cc1` (centres unmarked) [Example 146, N-(2-aminophenyl)-4-((4-(((2-phenylcyclopropyl)amino)methyl)-1H-1,2,3-triazol-1-yl)methyl)benzamide TFA Salt]: the negative-log IC50 (pIC50) on LSD1 is 7.16; in data set [1], less than 5.00. For the same compound, in the data set with MM1S, the negative-log EC50 (pEC50) was 6.97.
In the case of `Cn1cc(-c2ccc(C3CC3NCC3CCN(Cc4ccc(C(=O)NO)cc4)CC3)cc2)ccc1=O` (centres unmarked) [Example 35, N-hydroxy-4-((4-(((2-(4-(1-methyl-6-oxo-1,6-dihydropyridin-3-yl)phenyl)cyclopropyl)amino)methyl)piperidin-1-yl)methyl)benzamide TFA Salt], the figures for the pIC50 (on LSD1; in data set [1]) were 7.47 and 6.70, respectively. Besides, in the data set with MM1S, the negative-log EC50 (pEC50) is 5.84.
Turning to `O=C(NO)c1ccc(S(=O)(=O)NCCN2CCC(CNC3CC3c3ccc(F)cc3)CC2)cc1` (centres unmarked) [Example 87, 4-(N-(2-(4-(((2-(4-fluorophenyl)cyclopropyl)amino)methyl)piperidin-1-yl)ethyl)sulfamoyl)-N-hydroxybenzamide TFA Salt], the pIC50 is 7.60 at LSD1 and 5.97 in data set [1]. For the same compound, the negative logarithm of the EC50 (pEC50) in the data set with MM1S is 5.04.
The like results for `Nc1ccccc1NC(=O)c1ccc(S(=O)(=O)N2CCC(CNC3CC3c3ccccc3)CC2)cc1` (centres unmarked) [Example 160, N-(2-aminophenyl)-4-((4-(((2-phenylcyclopropyl)amino)methyl)piperidin-1-yl)sulfonyl)benzamide TFA Salt] were, in that order, 7.37, less than 5.00 and 6.75.
Take `Nc1ccccc1NC(=O)c1coc(CCCN2CCC(CNC3CC3c3ccccc3)CC2)n1` (centres unmarked) [Example 153, N-(2-aminophenyl)-2-(3-(4-(((2-phenylcyclopropyl)amino)methyl)piperidin-1-yl)propyl)oxazole-4-carboxamide TFA Salt]: the pIC50 was 7.62 at LSD1 and less than 5.00 in data set [1]. Further, the negative-log EC50 (pEC50) in the data set with MM1S was 6.24.
As for `O=C(NO)C1CCC(NC2CC2c2ccccc2)CC1` (centres unmarked) [Example 33, 4-(2-Phenyl-cyclopropylamino)-cyclohexanecarboxylic Acid Hydroxyamide TFA Salt], the negative logarithm of the IC50 (pIC50) at LSD1 is 5.65; in data set [1] it was less than 6.00.
Consider `O=C(NO)c1ccc(Cn2cc(CNC3CC3c3ccccc3)nn2)cc1` (centres unmarked) [Example 41, N-hydroxy-4-((4-(((2-phenylcyclopropyl)amino)methyl)-1H-1,2,3-triazol-1-yl)methyl)benzamide TFA Salt], for which the values for the pIC50 (at LSD1; in data set [1]) were 6.50 and 7.13, respectively.
Take `O=C(NO)c1ccc(CCN2CCC(CNC3CC3c3ccccc3)CC2)cc1` (centres unmarked) [Example 42, N-hydroxy-4-(2-(4-(((2-phenylcyclopropyl)amino)methyl)piperidin-1-yl)ethyl)benzamide TFA Salt]: the pIC50 at LSD1 was 7.82; in data set [1] it was 6.31. Moreover, in the data set with MM1S, the negative logarithm of the EC50 (pEC50) is 6.72.
The like results for `O=C(NO)c1cnc(N2CCC(CNC3CC3c3ccc(-c4ccc(F)cc4)cc3)CC2)nc1` (centres unmarked) [Example 15, 2-(4-(((2-(4′-fluoro-[1,1′-biphenyl]-4-yl)cyclopropyl)amino)methyl)piperidin-1-yl)-N-hydroxypyrimidine-5-carboxamide TFA Salt] were, in that order, 7.02, 6.87 and 7.92.
